Results published in patent US20140357487A1, “PLANTS HAVING INCREASED TOLERANCE TO HERBICIDES” (BASF SE, priority 2011, published 2014).

Tests used:
Type in all cases: biochemical
Lolium HPPD = assay: HPPD activity assay, Lolium HPPD; conditions: normalized on Arabidopsis wild-type HPPD
Protocol: (§1) HPPD produces homogentisic acid and CO2 from 4-hydroxyphenylpyruvate (4-HPP) and O2. The activity assay for HPPD is based on the analysis of homogentisic acid by reversed phase HPLC.
(§2) The assay mixture can contain 150 mM potassium phosphate buffer pH 7.0, 50 mM L-ascorbic acid, 1 μM FeSO4 and 7 μg of purified enzyme in a total volume of 1 ml.
(§3) Inhibitors are dissolved in DMSO (dimethylsulfoxide) to a concentration of 20 mM or 0.5 mM, respectively. From this stock solution serial five-fold dilutions are prepared in DMSO, which are used in the assay. The respective inhibitor solution accounts for 1% of the assay volume. Thus, final inhibitor concentrations range from 200 μM to 2.5 nM or from 5 μM to 63 pM, respectively. After a preincubation of 30 min the reaction is started by adding 4-HPP to a final concentration of 0.1 mM. The reaction is allowed to proceed for 120 min at room temperature. The reaction is stopped by addition of 100 μl of 4.5 M phosphoric acid.
(§4) Activities are normalized by setting the uninhibited enzyme activity to 100%. IC50 values are calculated using non-linear regression.
(§5) The assay mixture can contain 150 mM potassium phosphate buffer pH 7.0, 50 mM L-ascorbic acid, 100 μM Catalase (Sigma-Aldrich), 1 μM FeSO4 and 0.2 units of purified HPPD enzyme in a total volume of 505 μl. 1 unit is defined as the amount of enzyme that is required to produce 1 nmol of HGA per minute at 20° C.
(§6) Inhibitors are dissolved in DMSO (dimethylsulfoxide) to a concentration of 0.5 mM. From this stock solution serial five-fold dilutions are prepared in DMSO, which are used in the assay. The respective inhibitor solution accounts for 1% of the assay volume. Thus, final inhibitor concentrations range from 5 μM to 320 pM, respectively. Activities are normalized by setting the uninhibited enzyme activity to 100%. IC50 values are calculated using non-linear regression.
(§7) Using methods which are described in the above examples or well known in the art, purified, recombinant wildtype HPPD enzymes are characterized with respect to their kinetic properties and sensitivity towards HPPD inhibiting herbicides. Apparent michaelis constants (Km) and maximal reaction velocities (Vmax) are calculated by non-linear regression with the software GraphPad Prism 5 (GraphPad Software, La Jolla, USA) using a substrate inhibition model. […] Weighted means (by standard error) of Km and […] values are calculated from at least three independent experiments. […]
(§8) Field performance of the HPPD enzyme, which is used as a herbicide tolerance trait, may depend not only on its lack of sensitivity towards HPPD inhibiting herbicides but also on its activity. To assess the potential performance of a herbicide tolerance trait a tolerance index (TI) is calculated using the following formula: […]

[1] = target: T1, Hordeum HPPD variant L353M, P321R, L320N (Hordeum vulgare, UniProt O48604, L320N/L353M/P321R); assay: HPPD activity assay, Hordeum HPPD mutant L353M, P321R, L320N; conditions: normalized on Hordeum wild-type HPPD
T1 construct: His (N); made in house; host or cells: E. coli BL21 (DE3)
Protocol: as §1, §2
as §3, with “Thus, final inhibitor concentrations range from 200 μM to 2.5 nM or from 5 μM to 63 pM, respectively.” left out
as §4, §5
as §6, with “Thus, final inhibitor concentrations range from 5 μM to 320 pM, respectively.” left out
Purified, mutant HPPD enzymes are obtained by the methods described above. Dose response and kinetic measurements are carried out using the described HPPD activity assay. Apparent michaelis constants (Km) and maximal reaction velocities (Vmax) are calculated by non-linear regression with the software GraphPad Prism 5 (GraphPad Software, La Jolla, USA) using a substrate inhibition model.
as §8, with “of the optimized HPPD enzyme,” for “of the HPPD enzyme,”, “herbicide tolerance trait may depend” for “herbicide tolerance trait, may depend”
Easy comparison and ranking of each trait is enabled by normalizing tolerance indexes on Arabidopsis or Hordeum wild-type HPPD.

Rhodococcus HPPD2 = assay: HPPD activity assay, Rhodococcus HPPD2; conditions: normalized on Arabidopsis wild-type HPPD
Protocol: as §1, §2, §3, §4
The assay mixture can contain 150 mM potassium phosphate buffer pH 7.0, 50 mM L-ascorbic acid, 100 μM Catalase (Sigma-Aldrich), 1 μM FeSO4 and 0.2 units of purified HPPD enzyme in a total volume of 505 μl. […]
Inhibitors are dissolved in DMSO (dimethylsulfoxide) to a concentration of 0.5 mM. […] IC50 values are calculated using non-linear regression.
as §7

T1 sequence (O48604 whole entry R146V/R147D/R148G/A164G/L320N/P321R/L353M): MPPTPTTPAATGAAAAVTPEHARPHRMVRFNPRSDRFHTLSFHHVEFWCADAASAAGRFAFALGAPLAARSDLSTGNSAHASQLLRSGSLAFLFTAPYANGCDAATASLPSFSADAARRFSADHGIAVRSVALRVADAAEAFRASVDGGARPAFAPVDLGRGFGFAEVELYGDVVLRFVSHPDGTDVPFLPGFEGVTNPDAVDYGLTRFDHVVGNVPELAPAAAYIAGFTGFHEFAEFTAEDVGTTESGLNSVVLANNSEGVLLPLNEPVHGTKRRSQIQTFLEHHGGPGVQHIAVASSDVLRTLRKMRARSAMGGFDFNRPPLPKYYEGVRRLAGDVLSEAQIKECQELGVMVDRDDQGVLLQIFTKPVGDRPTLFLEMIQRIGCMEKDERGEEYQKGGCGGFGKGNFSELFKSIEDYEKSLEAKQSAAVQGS

SMILES | Normalized tolerance index TI (Lolium HPPD) | Normalized tolerance index TI [1] | Normalized tolerance index TI (Rhodococcus HPPD2)
CC1=NOC(c2c(Cl)ccc(C3=C(O)c4ncccc4C(C)(C)S3(=O)=O)c2Cl)C1 (stereo not drawn) [Inhibitor 1, 7-[2,4-dichloro-3-(3-methyl-4,5-dihydroisoxazol-5-yl)phenyl]-5,5-dimethyl-6,6-dioxo-thiopyrano[4,3-b]pyridin-8-ol] | 4.2 | 2.1 | 73
COCCOCc1c(Cl)ccc(C2=C(O)c3ncccc3C(C)(C)S2(=O)=O)c1Cl [Inhibitor 3, 7-[2,4-dichloro-3-(2-methoxyethoxymethyl)phenyl]-5,5-dimethyl-6,6-dioxo-thiopyrano[4,3-b]pyridin-8-ol] | 0.3 | 1.9 | 2.1
CC1(C)c2cccnc2C(O)=C(c2ccc(Cl)nc2Cl)S1(=O)=O [Inhibitor 2, 7-(2,6-dichloro-3-pyridyl)-5,5-dimethyl-6,6-dioxo-thiopyrano[4,3-b]pyridin-8-ol] | 1.8 | 1.4 | 11.4
